Calls of active or inactive are those of the source. Rule as the data show it, for most assays here: actives have a measured EC50 and inactives only a lower limit.
Key:
[1] = Luminescence Cell-Based Dose Response HTS to Identify Inhibitors of 5'UTR Stem-Loop Driven Prion Protein mRNA Translation in H4 Neuroglioblastoma Cells. [Related pubchem assays: 1827 (Project Summary), 1813 (Primary HTS)]; assay type: functional
[2] = inhibitors of SNCA 5'UTR-driven reporter translation, confirmation, H4 neuroglioma cells, luminescence (AID 1988); assay type: functional, cell-based
[3] = inhibitors of firefly luciferase expression or activity, dose response, H4 neuroglioma cells, luminescence (AID 1990); assay type: functional, cell-based
[4] = Luminescence Cell-Based Dose Retest to Confirm Inhibitors of Cancer Stem Cells. [Related pubchem assays (depositor defined):AID2717, AID2721]; assay type: functional; conditions: Homo sapiens
[5] = target: T1, Replicative DNA helicase DnaB (Mycobacterium tuberculosis, UniProt P9WMR3); test: DnaB intein splicing inhibitors, dose response, biochemical, cell-free fluorescence (AID 449749); assay type: functional
T1 sequence (P9WMR3 whole entry): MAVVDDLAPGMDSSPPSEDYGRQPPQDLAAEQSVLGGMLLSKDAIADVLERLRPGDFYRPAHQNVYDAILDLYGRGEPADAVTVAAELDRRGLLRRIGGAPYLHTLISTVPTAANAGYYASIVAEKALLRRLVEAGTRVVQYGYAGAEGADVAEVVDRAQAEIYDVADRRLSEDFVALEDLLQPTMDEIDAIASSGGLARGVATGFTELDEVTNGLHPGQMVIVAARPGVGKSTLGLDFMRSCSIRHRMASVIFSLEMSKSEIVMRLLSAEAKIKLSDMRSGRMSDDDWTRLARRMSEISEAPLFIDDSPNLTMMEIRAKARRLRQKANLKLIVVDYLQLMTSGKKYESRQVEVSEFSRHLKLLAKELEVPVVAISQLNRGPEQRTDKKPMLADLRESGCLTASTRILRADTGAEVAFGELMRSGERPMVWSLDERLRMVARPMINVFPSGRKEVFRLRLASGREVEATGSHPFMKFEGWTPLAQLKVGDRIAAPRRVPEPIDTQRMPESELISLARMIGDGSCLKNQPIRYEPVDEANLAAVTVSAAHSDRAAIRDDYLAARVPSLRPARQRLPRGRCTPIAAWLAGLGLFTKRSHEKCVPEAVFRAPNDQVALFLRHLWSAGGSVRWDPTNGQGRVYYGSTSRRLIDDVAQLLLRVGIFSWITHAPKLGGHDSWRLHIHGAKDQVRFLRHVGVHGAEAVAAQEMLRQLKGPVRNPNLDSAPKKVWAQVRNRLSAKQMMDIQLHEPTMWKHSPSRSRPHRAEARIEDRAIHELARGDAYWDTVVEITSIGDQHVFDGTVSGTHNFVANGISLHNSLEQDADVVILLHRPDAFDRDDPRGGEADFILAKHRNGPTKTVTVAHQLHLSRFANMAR

[6] = target: T2, Protein RecA (Mycobacterium tuberculosis, UniProt P9WHJ3); test: Fluorescence Cell-Free Homogeneous Dose Retest to Identify Inhibitors of RecA-Intein Splicing Activity. [Related pubchem assays (depositor defined):AID2097, AID2223, AID489010, AID492950]; assay type: functional
T2 sequence (P9WHJ3 whole entry): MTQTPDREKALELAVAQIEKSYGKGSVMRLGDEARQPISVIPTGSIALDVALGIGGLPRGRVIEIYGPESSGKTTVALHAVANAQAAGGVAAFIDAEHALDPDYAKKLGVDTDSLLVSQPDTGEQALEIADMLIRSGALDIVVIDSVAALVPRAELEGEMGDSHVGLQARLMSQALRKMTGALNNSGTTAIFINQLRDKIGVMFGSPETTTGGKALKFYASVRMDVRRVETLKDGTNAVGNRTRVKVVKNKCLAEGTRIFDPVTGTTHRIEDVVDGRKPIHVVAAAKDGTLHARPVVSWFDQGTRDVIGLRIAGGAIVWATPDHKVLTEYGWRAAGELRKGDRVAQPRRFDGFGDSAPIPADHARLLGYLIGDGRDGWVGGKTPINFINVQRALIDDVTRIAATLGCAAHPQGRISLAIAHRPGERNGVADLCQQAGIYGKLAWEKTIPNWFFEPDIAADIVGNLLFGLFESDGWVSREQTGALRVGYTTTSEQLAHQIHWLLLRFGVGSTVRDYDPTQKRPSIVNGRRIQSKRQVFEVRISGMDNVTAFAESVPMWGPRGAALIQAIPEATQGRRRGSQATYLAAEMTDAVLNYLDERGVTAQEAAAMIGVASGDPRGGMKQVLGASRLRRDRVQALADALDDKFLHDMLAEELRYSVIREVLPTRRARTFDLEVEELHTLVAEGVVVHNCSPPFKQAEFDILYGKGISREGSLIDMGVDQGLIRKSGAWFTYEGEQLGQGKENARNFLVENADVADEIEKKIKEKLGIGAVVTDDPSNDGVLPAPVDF

[7] = tested on: Streptococcus; test: Group A Streptococcus viability loss, dose response, counter-screen for streptokinase expression inhibitor project, luminescence, BacTiterGlo (AID 1915); assay type: functional, organism-based;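 also: potency for reduction of bacterial viability or growth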
[8] = tested on: Streptococcus sp. 'group A'; test: growth inhibition of control SK(-) GAS strain, dose response, counter-screen for streptokinase expression inhibitor project, luminescence, kanamycin, BacTiterGlo, confirmation (AID 1900); assay type: functional, organism-based
[9] = target: T3, Streptokinase A (Streptococcus pyogenes serotype M1, UniProt P10520); test: S. pyogenes streptokinase expression inhibitors, potency, dose response, plasminogen activation absorbance, OD405 (AID 1914); assay type: functional, Streptococcus pyogenes M1 GAS;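 also: secreted streptokinase activity via plasminogen activation per viability signal from cell pellet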
T3 sequence (P10520 whole entry): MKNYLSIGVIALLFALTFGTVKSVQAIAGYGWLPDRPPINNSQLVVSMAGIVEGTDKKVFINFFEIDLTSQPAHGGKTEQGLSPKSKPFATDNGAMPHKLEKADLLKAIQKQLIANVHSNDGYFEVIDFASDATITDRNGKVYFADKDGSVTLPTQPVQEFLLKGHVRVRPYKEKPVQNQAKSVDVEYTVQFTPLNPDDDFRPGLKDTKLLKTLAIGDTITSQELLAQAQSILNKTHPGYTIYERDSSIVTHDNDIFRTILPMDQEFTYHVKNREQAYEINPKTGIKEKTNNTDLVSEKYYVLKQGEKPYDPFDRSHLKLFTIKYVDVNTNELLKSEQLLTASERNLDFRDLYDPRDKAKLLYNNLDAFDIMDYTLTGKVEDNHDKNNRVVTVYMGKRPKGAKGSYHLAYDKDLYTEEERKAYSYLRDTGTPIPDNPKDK

[10] = cytotoxicity toward NIH3T3 fibroblasts, dose response, counter-screen, cell-based, ATP luminescence, mouse fibroblasts (AID 2010); assay type: functional;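 also: cells exposed to compound for about 90 hours before reading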
[11] = inhibitors of intracellular T. cruzi replication, confirmation, NIH3T3 host cells, beta-gal luminescence (AID 2044); assay type: functional, cell-based;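 also: intracellular parasites grown in NIH/3T3 mouse fibroblasts as host cells; luminescent beta-galactosidase reporter signal from transgenic T. cruzi replicating inside host cells; inhibitors lower the luminescence signal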

| SMILES | EC50 [1] | EC50 [2] | EC50 [3] | AC50 [4] | also measured |
| --- | --- | --- | --- | --- | --- |
| Nc1nc(NCc2ccco2)nc(Nc2ccc(F)cc2)c1[N+](=O)[O-] | > 120 µM (not active) | > 120 µM (not active) | 35 µM (active) |  |  |
| Cc1cc(N)n(-c2ccc(S(N)(=O)=O)cc2[N+](=O)[O-])n1 |  |  |  | > 195 µM (inactive) |  |
| Cn1cnc([N+](=O)[O-])c1Sc1ccc(C(C)(C)C)cc1 |  |  |  |  | AC50 [5]: 13.6 µM (active); EC50 [6]: 14.1 µM (active) |
| Nc1nc(NCCOCCO)nc(NC2CCCCC2)c1[N+](=O)[O-] | 0.14 µM (active) | 17.3 µM (active) | 16.7 µM (active) |  |  |
| O=C1c2ccccc2C(=O)C12Cc1ccccc1N1CCN(c3ccccc3)CC12 (stereo unspecified) | > 120 µM (not active) | > 120 µM (not active) | > 120 µM (not active) |  |  |
| CCCc1nnc(NC(=O)c2c(O)c3cccc4c3n(c2=O)CCC4)s1 | > 120 µM (not active) | > 120 µM (not active) | 99.5 µM (active) |  | EC50 [7]: 3.1 µM (active); EC50 [8]: 2.53 µM (active) |
| COc1ccc(/C=C/c2cc(C(=O)O)c3ccccc3n2)cc1 | 2.83 µM (active) | 6.45 µM (active) | 3.67 µM (active) |  |  |
| O=C(CCCN1C(=O)/C(=C\c2cccs2)SC1=S)Nc1ccc(O)cc1C(=O)O |  |  |  |  | AC50 [5]: 17.7 µM (active); EC50 [6]: 12.7 µM (active) |
| COc1ccc(-c2sc3ccc(N4CCOCC4)cc3c2C#CCCO)cc1 |  |  |  | 3 µM (active) |  |
| CC(=O)c1ccc(OC(=O)c2cccs2)cc1 |  |  |  |  | AC50 [5]: 24.3 µM (active); EC50 [6]: 12.2 µM (active) |
| CCCC(O)(c1ccc(Br)cc1)C(CN1CCOCC1)c1ccc(Cl)cc1 (stereo unspecified) |  |  |  |  | EC50 [7]: 72.1 µM (active); EC50 [8]: 7.94 µM (active); EC50 [9]: 12.1 µM (active) |
| CC1CCc2cccc3c2N1c1cc(C#N)c(C#N)cc1O3 (stereo unspecified) | 88.7 µM (active) | 33.4 µM (active) | 8.54 µM (active) |  |  |
| CC(C)n1nc(C(=O)Nc2nnc(SCc3c(Cl)cccc3Cl)s2)c2ccccc2c1=O |  |  |  |  | EC50 [7]: 116 µM (active); EC50 [8]: 2.09 µM (active); EC50 [9]: > 150 µM (not active) |
| CCC(C)N1C(=O)/C(=C/NNc2ccccc2)C(=O)NC1=S (stereo unspecified) |  |  |  | 2.24 µM (active) | EC50 [7]: > 150 µM (not active); EC50 [8]: > 150 µM (not active); EC50 [9]: > 150 µM (not active) |
| CCOC(=O)c1sc2nc(CC(=O)OC)nc(N3CCN(c4ccc(OC)cc4)CC3)c2c1C | > 120 µM (not active) | 89.9 µM (active) | > 120 µM (not active) |  | EC50 [10]: > 60 µM (not active); EC50 [11]: 1.91 µM (active) |
| Cc1cccc(C)c1NC(=S)N/N=C/c1ccc(OCCC(C)C)cc1 |  |  |  |  | EC50 [7]: 21.9 µM (active); EC50 [8]: 8.34 µM (active); EC50 [10]: > 60 µM (inconclusive); EC50 [11]: 2.02 µM (active); EC50 [9]: 16.9 µM (active) |
| COC(=O)Nc1nc(-c2ccccc2)c(C(=O)c2ccc(Cl)cc2)s1 | 7.87 µM (active) | 0.179 µM (active) | 7.45 µM (active) |  |  |
| CC(=O)c1ccc(Oc2ncnc(N)c2[N+](=O)[O-])cc1 | 13.6 µM (active) | 11.2 µM (active) | > 120 µM (not active) |  |  |
| Cc1ccc(Nc2nc(N)c([N+](=O)[O-])c(NCc3ccco3)n2)cc1C |  |  |  | 6.48 µM (active) |  |
| Cc1ccc(Cl)cc1N1CCN(C(CC(C)C)c2nnnn2CC2CCCO2)CC1 (stereo unspecified) |  |  |  | 0.631 µM (active) |  |
| CC(C)[C@@H]1CC[C@@H](C)c2c1n[nH]c2-c1ccccc1 |  |  |  | 4.99 µM (active) |  |
| O=C1N=C(Nc2ccc(Cl)cc2)SC1Cc1cccc(Cl)c1Cl (stereo unspecified) |  |  |  | 13.2 µM (active) | EC50 [7]: > 150 µM (not active); EC50 [8]: 3.91 µM (active); EC50 [9]: 131 µM (active) |
| CCc1ccc(Nc2nc(N)nc(CSc3nc4ccccc4s3)n2)cc1 |  |  |  | > 195 µM (inactive) |  |
| CCCc1n[nH]c2c1C(c1ccccc1OCC)C(C#N)=C(N)O2 (stereo unspecified) |  |  |  |  | AC50 [5]: 237 µM (active); EC50 [6]: 9.01 µM (active) |
| CCOC(=O)C(C#N)C(c1cccnc1)c1c(C)[nH][nH]c1=O (stereo unspecified) |  |  |  |  | AC50 [5]: 6.32 µM (active); EC50 [6]: 1.81 µM (active) |
| Oc1nc(CN2CCN(c3ccccn3)CC2)nc2c(Br)cc(Br)cc12 |  |  |  | 2.76 µM (active) |  |
| Cc1n[nH]c2c1C(CC(C)C)C(C#N)=C(N)O2 (stereo unspecified) |  |  |  |  | AC50 [5]: 13.1 µM (active); EC50 [6]: 3.84 µM (active) |
| CCc1nnc(NC(=O)c2ccc(S(=O)(=O)N(C)Cc3ccccc3)cc2)o1 | > 120 µM (not active) | > 120 µM (not active) | > 120 µM (not active) |  |  |
| C[C@@H]1CN([C@H](C)CO)C(=O)c2cc(NC(=O)Nc3ccc(C(F)(F)F)cc3)ccc2O[C@H]1CN(C)S(=O)(=O)c1ccc(Cl)cc1 |  |  |  | 2.71 µM (active) |  |
| N#Cc1nc(Cc2cccc3ccccc23)oc1N1CCCCC1 | > 120 µM (not active) | > 120 µM (not active) | 16.2 µM (active) |  |  |

Source: ChEMBL document CHEMBL1201862, “PubChem BioAssay data set” (2004)
